Reference: US20230226087A1, “PHOSPHOLIPIDS AND PHOSPHOLIPID METABOLITES FOR TREATING VIRAL AND BACTERIAL PNEUMONIA AND SEPSIS” (ANDREAS HETTICH GMBH & CO. KG, priority 2020, published 2023)
Read-outs that look alike come from different tables or passages of the source.

Legend:
plasma LysoPC level [1] = assay: Change of plasma LysoPC level after oral ingestion in a fasted healthy subject (HPTLC assay of LysoPC); settings: 600 mg alpha-GPC
Description: (§1) LysoPC from plasma, serum or blood was extracted in one step by a newly developed method and subsequently assayed by using HPTLC (high performance thin layer chromatography).
(§2) The extraction of 50 μl of sample each was effected using salt-assisted extraction. For this purpose, a ceramic sphere (3.4 mm, ceramic) was charged in a 2 ml twist-top vial, and then 50 μl of distilled water, 50 μl of sample, 192 μl of concentrated ammonium acetate solution, and 300 μl of acetonitrile/1-pentanol (2.5:1 v/v) were added. After closing, the vial is intensively shaken centrifugally using dual centrifugation (ZentriMix 380 R, from the company Hettich, Tuttlingen, Germany) at 2000 rpm and 20° C. for 4 min. Subsequently, the vials are centrifuged at 16,000 rpm for 10 min. From the upper phase, 200 μl is removed, transferred to a crimp-top vial with a microinsert, crimped, and sent to HPTLC.
(§3) For the determination of the LysoPC concentrations using HPTLC, five LysoPC standards (16, 40, 80, 120 and 160 μM LysoPC in acetonitrile/1-pentanol (2.5:1 v/v.) and up to 12 sample extracts were applied to a 20×10 cm silica gel plate using the automated applying device ATS4 (CAMAG, Switzerland). The volume applied is 6 μl each.
(§4) After the application and after a dwell time of five minutes to ensure uniform evaporation of the solvent, the plate is placed into a preconditioned DC chamber filled with 35 ml of chloroform/methanol/water (65:35:4 v/v) and 200 μl of 25% ammonia solution for 20 min. Within this period, a travelling distance of about 9 cm is reached. […] After cooling to room temperature again, the optical density of the LysoPC bands (Rf about 0.1) is determined using the evaluation unit (TLC Visualizer 2, CAMAG, Switzerland), and the LysoPC concentrations were evaluated by comparing with the calibration substances using the HPTLC software “visionCATS” (Camag, Switzerland). If the LysoPC value is determined, not directly from plasma, but from whole blood, then the value needs to be corrected by the respective hematocrit value and by a factor of 1.3. […]

[2] = Assaying the total amount of LysoPC in the body (distribution between plasma and deeper compartments); assay type: in vivo, human
Description: To the therapeutic approach for the treatment of pneumonias of different origins and of sepsis as described herein, the determination of the total amount of LysoPC in the body is essential. The latter could be determined by determining the LysoPC concentration in the plasma, which is in equilibrium with the deeper compartments. To this end, one subject was administered, on the one hand, a high amount of phospholipid from egg (Example 1 (Determination of Plasma LysoPC) and Example 2). The plasma volume was calculated, the increase of the LysoPC concentration was determined, and the plasma LysoPC level accompanying this concentration change was calculated. This LysoPC amount and its ratio to the amount taken up yields the distribution of the LysoPC equivalent taken up between the plasma and the deeper compartments, from which the total LysoPC amount in the body can be calculated. It was considered that 100% of the phospholipid is taken up as LysoPC.
In another experiment, a subject was administered a high amount (25 g) of pure triglyceride (Example 3). The plasma volume was calculated. The lowering of the LysoPC concentration because of the consumption of LysoPC for producing PC for the biosynthesis of chylomicrons was determined (One chylomicron contains about 5-10% PC as a ratio to the amount of triglyceride). The amount of plasma LysoPC involved in this concentration change was calculated. This amount of LysoPC and its ratio to the amount taken up yields the distribution of the LysoPC equivalent taken up between the plasma and the deeper compartments, from which the total LysoPC amount in the body can be calculated. It was considered that 100% of the plasma LysoPC was converted to PC.
From the results of Examples 2 and 3, the amount of LysoPC in deeper compartments could be estimated at about 95% of the total body LysoPCs, i.e., about 5% is present in the blood plasma.
On this basis, the amount of total body LysoPCs can be estimated to a minimum of 10 g. […]

[3] = squirrel monkeys; cited from earlier work
[4] = mice; cited from earlier work
albumin = albumin (Homo sapiens, UniProt P02768); settings: cited from earlier work
albumin, sequence (P02768 25-609): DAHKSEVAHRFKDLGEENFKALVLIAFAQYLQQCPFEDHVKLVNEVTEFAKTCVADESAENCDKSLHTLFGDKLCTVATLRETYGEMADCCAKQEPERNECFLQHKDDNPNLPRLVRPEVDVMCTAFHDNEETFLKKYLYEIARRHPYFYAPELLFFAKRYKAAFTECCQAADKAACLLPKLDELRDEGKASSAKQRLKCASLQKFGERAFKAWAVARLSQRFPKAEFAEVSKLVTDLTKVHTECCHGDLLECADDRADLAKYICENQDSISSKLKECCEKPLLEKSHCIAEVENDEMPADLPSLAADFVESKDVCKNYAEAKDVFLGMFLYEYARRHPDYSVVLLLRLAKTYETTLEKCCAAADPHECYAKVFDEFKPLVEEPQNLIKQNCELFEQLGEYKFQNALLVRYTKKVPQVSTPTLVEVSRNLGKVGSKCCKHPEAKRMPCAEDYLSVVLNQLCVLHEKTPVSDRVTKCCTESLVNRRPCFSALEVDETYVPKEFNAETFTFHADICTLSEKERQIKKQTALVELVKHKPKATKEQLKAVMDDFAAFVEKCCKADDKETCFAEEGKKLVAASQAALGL

E. coli = settings: mice, cited from earlier work
[5] = system: septic shock (Gram positive and Gram negative); settings: rat, cited from earlier work
sepsis models = settings: mice, 25 mg/kg LysoPC i.p., cited from earlier work
[6] = system: production of antigen-specific antibodies; settings: mice, administered simultaneously with various antigens; cited from earlier work
plasma LysoPC level [7] = settings: human, in vivo
Description: as §1, §2, §3, §4

alpha-glycerophosphocholine [alpha-GPC]
increase of plasma LysoPC level (plasma LysoPC level [1]; rise within 30 min after the first hour, then constant until end (2 hours)): about 20%
change of plasma LysoPC level in the first hour (plasma LysoPC level [1]; starting level about 190 μM): did not change

lyso-phosphatidylcholine [LysoPC]
amount of total body LysoPCs ([2]; for mean 300 μM and plasma volume about 3.5 liters (about 500 mg in plasma)): about 10 g
proportion of total body LysoPC located in the blood plasma ([2]; from Examples 2 and 3): 4-5%
daily conversion rate of LysoPC ([2]; healthy subjects, based on estimated total body half life of 2.5 hours): about 50 g
LysoPC half life [3]: 1.3 h
LysoPC half life [4]: about 4 hours
number of binding sites of albumin for LysoPC (albumin): 3-4
share of plasma LysoPCs bound by albumin (albumin; plasma): about 80%
survival (E. coli; E. coli sepsis, 20 mg/kg LysoPC s.c., from about 20%): 90%
duration of increased LysoPC level after a single injection (E. coli; single injection): about 4 hours
IL1-β levels ([5]; accompanying the protecting effects): reduction of the IL1-β levels
effect of higher doses ([5]; higher doses of up to 100 mg/kg): incapable or even harmful
effect on damage to the organs and dysfunctions ([5]; up to 10 mg/kg, i.v.): reduce the damage to the organs and dysfunctions significantly
bacterial clearance (sepsis models): improved
survival, first sepsis model (sepsis models; from 0%): 69%
survival, second sepsis model (sepsis models; from 0%): 40%
effect in the production of antigen-specific antibodies (adjuvant) [6]: identical to that of alum

triglycerides
share of the consumed LysoPC amount (1700 mg) taken from the plasma (plasma LysoPC level [7]): 3.9%
